Results on 14 compounds are retold here after patent publication US5939279A, “Inhibition of bacterial binding by high-mannose oligosaccharides” (priority 1997, dated 1999).

One test deals with Enterobacter cloacae. In words: microbe, parasite or virus in culture. The class given is cell-based. Conditions: for IC50: 1 h, read-out: 50% inhibition of binding; for inhibition of binding: even at 100 mM concentrations. As to the method: (§1) Bacterial adherence was measured as follows: confluent HT-29 cell monolayers, contained in 24 well plates, were washed two times with PBS. Various amounts of the labeled bacteria, all in the same final volume of buffer, were added to the monolayers and allowed to incubate at 37° C. for 1 hour, with intermittent agitation. At least three wells received each concentration of bacteria. At the end of the incubation, unbound bacteria were removed by aspiration, and the monolayers were washed at least 5 times with PBS. After this thorough washing, the HT-29 cells were released from each well with a trypsin-EDTA mixture and the cell suspension was placed in a scintillation vial. Each well was then washed with another 0.5 ml of water along with scraping with a plastic paddle to remove any firmly attached cells. This second wash was then added to the same vial that contained the first trypsin digest. Ten ml of scintillation fluid were added and radioactivity was determined as a measure of the number of bacteria bound.
A variety of simple sugars (D-mannose, D-galactose, D-fructose, L-fucose, D-GlcNAc, sialic acid) were tested at various concentrations to determine their ability to block the adhesion of Enterobacter cloacae to the HT-29 cells. In addition, p-nitrophenyl-α-D-mannoside and 4-methylumbelliferyl-α-D-mannoside and glycopeptides with various high-mannose or complex types of oligosaccharides were also tested as inhibitors. […] […] The plates were then incubated and harvested as described above in the adherence assay, and the amount of radioactivity bound to the cell monolayer was determined.

A further test concerns Escherichia coli. Conditions: studies by Firon et al (8); cited from earlier work.
The subject of a further test is HT-29 cells. Description: Adhesion of E. cloacae to HT-29 cells grown in the presence of N-linked glycoprotein processing inhibitors. It counts as cell-based. The settings on record: for activation at 100 µg/mL: inhibitor 100 μg/ml; for Adhesion (cpm): average of three sets of experiments; for change in the amount of radioactive bacteria bound: text summary of Table II; for activation at 5 µg/mL: inhibitor 5 μg/ml; for activation at 25 µg/mL: inhibitor 25 μg/ml; for activation at 50 µg/mL: inhibitor 50 μg/ml; for activation at 10 µg/mL: inhibitor 10 μg/ml. As to the method:
as §1
HT-29 cells were transferred at low density to multiwell plates, and grown in McCoy's medium containing different concentrations of various processing inhibitors. Thus, one 24-well plate was divided into 4 sections, each with 6 wells having the following components: castanospermine at 0, 5, 10, 25, 50 and 100 μg/ml; deoxymannojirimycin at 0, 5, 25, 50, 100 and 200 μg/ml; kifunensine at 0, 2, 5, 10, 25 and 50 μg/ml; swainsonine at 0, 1, 5, 10, 25 and 50 μg/ml. HT-29 cells were allowed to grow to confluency over a period of 4 to 5 days. Once the cells reached confluency, the media was removed by aspiration and the monolayers were washed with PBS. Each well was then challenged with the same number of radioactive bacteria to determine the extent of bacterial adhesion, as described above in the adhesion assay.

In a further test the target is 35 kDa pili subunit (Enterobacter cloacae, UniProt Q9Z643). Description: Modified Western blot: labeling of pili adhesive subunit by α-mannosylated-biotinylated-albumin. Conditions: 50 mM sugar in incubation; FIG. 5. It counts as binding.
Setting [1] is: Homo sapiens, HT-29, percent relative to the control, read-out: Increase in adhesion (%).
Setting [2] is: inhibitor 5 μg/ml in culture medium.
The mark [3] stands for this setting: inhibitor 10 μg/ml in culture medium.
Setting [4] is: inhibitor 25 μg/ml in culture medium.
Setting [5] is: inhibitor 50 μg/ml in culture medium.
The mark [6] stands for this setting: inhibitor 100 μg/ml in culture medium.

35 kDa pili subunit, sequence (Q9Z643 entry or part of it): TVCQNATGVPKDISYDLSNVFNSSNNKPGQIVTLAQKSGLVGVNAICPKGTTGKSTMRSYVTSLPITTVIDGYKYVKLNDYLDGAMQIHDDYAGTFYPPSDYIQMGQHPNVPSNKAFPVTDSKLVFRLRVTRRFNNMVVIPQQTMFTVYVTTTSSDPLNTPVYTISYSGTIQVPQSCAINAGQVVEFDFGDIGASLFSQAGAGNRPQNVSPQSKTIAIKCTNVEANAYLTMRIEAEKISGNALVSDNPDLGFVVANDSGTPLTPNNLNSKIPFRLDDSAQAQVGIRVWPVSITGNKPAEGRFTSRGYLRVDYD
Experimental for 35 kDa pili subunit: Modified Western blot using an α-mannosylated-biotinylated-albumin, followed by an avidin-horseradish peroxidase conjugate and then visualization with 4-chloro-napthol according to the manufacturer's directions; D. Reaction system as in C, but incubated in the presence of 50 mM α-D-glucose; E. Reaction system as in C and D, but incubated in the presence of 50 mM α-D-mannose.
Thus, purified pili were subjected to 12% SDS-PAGE, and the resulting protein bands were transferred to nitrocellulose membranes. After washing the membranes to remove SDS, and incubating them with PBS containing 5% bovine serum albumin, they were incubated for 2 hours at room temperature with a mannosylated-albumin that contained a biotin tag. Some incubations also contained 50 mM D-mannose or 50 mM D-glucose.

As a reminder, the inhibition is the share of the control response that was lost under treatment. Regarding `Cc1cc(=O)oc2cc(O[C@H]3O[C@H](CO)[C@@H](O)[C@H](O)[C@@H]3O)ccc12` [4-methylumbilliferyl-α-D-mannoside, 4-methylumbelliferyl-α-D-mannoside], in the test on Enterobacter cloacae (Enterobacter cloacae), the IC50 amounted to 10 µM. The inhibition at 100 µM in the test with Enterobacter cloacae (Enterobacter cloacae, read-out: inhibition of binding) lay in the range of 80 to 90%. Also, the “inhibitor of Escherichia coli binding to epithelial cells, relative effectiveness” value in the test on Escherichia coli is recorded as “even better then the p-nitrophenyl-derivative”.

On to `O[C@H]1[C@H](O)[C@@H](O)CN2CC[C@H](O)[C@H]12` [Castanospermine], for which the activation at 100 µg/mL with HT-29 cells (setting [1]) was determined as 8%. Moreover, the “Adhesion (cpm)” value is listed as 12,410 cpm with HT-29 cells (setting [2]); 13,787 cpm in the test on HT-29 cells (setting [3]); 13,973 cpm in the test with HT-29 cells (setting [4]); 13,626 cpm in the test with HT-29 cells (setting [5]); 14,943 cpm in the test with HT-29 cells (setting [6]). For the same compound, the “change in the amount of radioactive bacteria bound” value in the test with HT-29 cells is reported as “did not cause any significant change”.

On to `O=C[C@H](O)[C@@H](O)[C@@H](O)[C@H](O)CO` [D-galactose], for which the inhibition of binding entry in the test on Enterobacter cloacae is listed as “did not inhibit binding”.

As to `OC[C@H]1OC(O)[C@H](O)[C@@H](O)[C@@H]1O` (stereo partly drawn) [D-glucose], in the test with Enterobacter cloacae, the inhibition of binding entry is “did not inhibit binding”.

As to `OC[C@H]1OC(O)[C@@H](O)[C@@H](O)[C@@H]1O` (stereo partly drawn) [D-mannose], the IC50 in the test on Enterobacter cloacae (Enterobacter cloacae) was found to be 500 µM. Also, the “labeling of the 35 kDa band by mannosylated-biotinylated-albumin” value at 35 kDa pili subunit is given as “inhibited”.

Take `OC[C@H]1NC[C@@H](O)[C@@H](O)[C@@H]1O` [Deoxymannojirimycin]: in the test with HT-29 cells (setting [1]), the activation at 5 µg/mL was 36%. Further, the activation at 25 µg/mL in the test with HT-29 cells (setting [1]) was determined as 47%. Besides, in the test with HT-29 cells (setting [1]), the activation at 50 µg/mL is 49%. In addition, in the test on HT-29 cells (setting [1]), the activation at 100 µg/mL came to 53%. Further, the activation at 200 µg/mL in the test on HT-29 cells (Homo sapiens, HT-29, inhibitor 200 μg/ml, percent relative to the control, read-out: Increase in adhesion (%)) worked out at 50%. The “Adhesion (cpm)” value in the test with HT-29 cells (setting [2]) was 18,630 cpm; in the test on HT-29 cells (setting [4]), 20,180 cpm; in the test on HT-29 cells (setting [5]), 20,500 cpm; in the test on HT-29 cells (setting [6]), 21,018 cpm; in the test on HT-29 cells (inhibitor 200 μg/ml in culture medium), 20,548 cpm.

As for `O=C1N[C@@H]2[C@@H](O)[C@@H](O)[C@H](O)[C@@H](CO)N2C1=O` [Kifunensine], in the test with HT-29 cells (Homo sapiens, HT-29, inhibitor 2 μg/ml, percent relative to the control, read-out: Increase in adhesion (%)), the activation at 2 µg/mL was 42%. The activation at 5 µg/mL in the test on HT-29 cells (setting [1]) amounted to 50%. Moreover, the activation at 10 µg/mL in the test on HT-29 cells (setting [1]) is 43%. The activation at 25 µg/mL in the test on HT-29 cells (setting [1]) was determined as 52%. Also, in the test with HT-29 cells (setting [1]), the activation at 50 µg/mL is 75%. Besides, the “Adhesion (cpm)” value is reported as 19,033 cpm in the test on HT-29 cells (inhibitor 2 μg/ml in culture medium); 20,161 cpm in the test on HT-29 cells (setting [2]); 19,257 cpm in the test on HT-29 cells (setting [3]); 20,414 cpm in the test with HT-29 cells (setting [4]); 23,442 cpm with HT-29 cells (setting [5]).

As to `C[C@H](O)[C@@H](O)[C@@H](O)[C@H](O)C=O` [L-fucose], the inhibition of binding entry in the test on Enterobacter cloacae is “did not inhibit binding”.

On to `CC(=O)N[C@H]1C(O)O[C@H](CO)[C@H](O)[C@@H]1O` (some centres unmarked) [N-acetylgalactosamine], for which the inhibition of binding entry in the test on Enterobacter cloacae was “did not inhibit binding”.

Turning to `CC(=O)N[C@H]1C(O)O[C@H](CO)[C@@H](O)[C@@H]1O` (some centres unmarked) [N-acetylglucosamine], the inhibition of binding entry in the test on Enterobacter cloacae was “did not inhibit binding”.

As to `O[C@H]1[C@H]2[C@H](O)CCCN2C[C@H]1O` [Swainsonine], the activation at 1 µg/mL in the test on HT-29 cells (Homo sapiens, HT-29, inhibitor 1 μg/ml, percent relative to the control, read-out: Increase in adhesion (%)) turned out to be 10%. Moreover, the activation at 5 µg/mL with HT-29 cells (setting [1]) worked out at 5%. Moreover, the activation at 10 µg/mL in the test on HT-29 cells (setting [1]) amounted to 11%. The activation at 50 µg/mL in the test with HT-29 cells (setting [1]) amounted to 8%. In addition, the “Adhesion (cpm)” value in the test on HT-29 cells (inhibitor 1 μg/ml in culture medium) is on record as 15,219 cpm; with HT-29 cells (setting [2]), 14,577 cpm; in the test with HT-29 cells (setting [3]), 15,275 cpm; with HT-29 cells (setting [4]), 13,857 cpm; in the test with HT-29 cells (setting [5]), 14,965 cpm. The “change in the amount of radioactive bacteria bound” value with HT-29 cells was “did not cause any change”.

As to `O=[N+]([O-])c1ccc(O[C@H]2O[C@H](CO)[C@@H](O)[C@H](O)[C@@H]2O)cc1` [p-nitrophenyl-α-D-mannoside], the reversal of binding result in the test on Enterobacter cloacae (0.5 mM added to the monolayers after the bacteria had bound) is recorded as “reversed”. For the same compound, the IC50 with Enterobacter cloacae (Enterobacter cloacae) came to 20 µM. The “inhibitor of Escherichia coli binding to epithelial cells, relative effectiveness” value in the test with Escherichia coli is recorded as “considerably better as an inhibitor than was α-methylmannoside”.

Turning to `CC(=O)N[C@H]1[C@H]([C@H](O)[C@H](O)CO)OC(O)(C(=O)O)C[C@@H]1O` (some centres unmarked) [sialic acid], the inhibition of binding entry in the test on Enterobacter cloacae is reported as “did not inhibit binding”.

As to `CO[C@H]1O[C@H](CO)[C@@H](O)[C@H](O)[C@@H]1O` [α-methylmannoside], the reversal of binding result in the test with Enterobacter cloacae (5 mM added to the monolayers after the bacteria had bound) is “reversed”. Also, the IC50 with Enterobacter cloacae (Enterobacter cloacae) stood at 150 µM.
